Laboratory results taken from US20150105252A1, “SUBSTITUTED PYRAZOLES AS HERBICIDES” (E I DU PONT DE NEMOURS AND COMPANY, priority 2013, published 2015).

What was measured:
galium = experiment: Test C preemergence; format: in vivo, Galium aparine
Method in brief: (§1)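 Greenhouse pot test: preemergence application onto freshly seeded loam/sand mix, postemergence application onto seedlings (1–4 leaves, 2–18 cm) in peat-vermiculite substrate. Responses scored visually 13 to 15 days later relative to controls, where 0 means no effect and 100 means complete control; a dash indicates no result.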

corn [1] = experiment: Test A postemergence; format: in vivo, Zea mays
Method in brief: (§2)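 Both timings tested concurrently in loam/sand soil: preemergence by directed soil spray, postemergence on plants of 2–10 cm at the one- to two-leaf stage. Greenhouse holding period was approximately 10 days before visual injury assessment (0–100, 0 = no effect).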

soybean = experiment: Test C preemergence; format: in vivo, Glycine max
From the text: (§3) Seeds of plant species selected from blackgrass (Alopecurus myosuroides), ryegrass, Italian (Italian ryegrass, Lolium multiflorum), wheat (winter wheat, Triticum aestivum), galium (catchweed bedstraw, Galium aparine), corn (Zea mays), crabgrass, large (large crabgrass, Digitaria sanguinalis), foxtail, giant (giant foxtail, Setaria faberii), johnsongrass (Sorghum halepense), lambsquarters (Chenopodium album), morningglory (Ipomoea coccinea), nutsedge, yellow (yellow nutsedge, Cyperus esculentus), pigweed (redroot pigweed, Amaranthus retroflexus), ragweed (common ragweed, Ambrosia elation), soybean (Glycine max), barnyardgrass (Echinochloa crus-galli), oilseed rape (Brassica napus), waterhemp (common waterhemp, Amaranthus rudis), oat, wild (wild oat, Avena fatua), kochia (Kochia scoparia), Surinam grass (Brachiaria decumbens), foxtail, green (green foxtail, Setaria viridis), goosegrass (Eleusine indica), bromegrass, downy (downy bromegrass, Bromus tectorum), nightshade (eastern black nightshade, Solanum ptycanthum), cocklebur (common cocklebur, Xanthium strumarium), cupgrass, woolly (woolly cupgrass, Eriochloa villosa), bermudagrass (Cynodon dactylon), sunflower, (common oilseed sunflower, Helianthus annuus), Russian thistle (Salsola kali), and velvetleaf (Abutilon theophrasti) were planted into a blend of loam soil and sand and treated preemergence with test chemicals formulated in a non-phytotoxic solvent mixture which included a surfactant.
(§4) At the same time, plants selected from these crop and weed species and also chickweed (common chickweed, Stellaria media), canarygrass (littleseed canarygrass, Phalaris minor), and deadnettle (henbit deadnettle, Lamium amplexicaule), were planted in pots containing Redi-Earth® planting medium (Scotts Company, 14111 Scottslawn Road, Marysville, Ohio 43041) comprising spaghnum peat moss, vermiculite, wetting agent and starter nutrients and treated with postemergence applications of test chemicals formulated in the same manner. Plants ranged in height from 2 to 18 cm (1- to 4-leaf stage) for postemergence treatments. Treated plants and controls were maintained in a greenhouse for 13 to 15 days, after which time all species were compared to controls and visually evaluated. Plant response ratings, summarized in Table C, are based on a scale of 0 to 100 where 0 is no effect and 100 is complete control. A dash (-) response means no test result.

velvetleaf [2] = experiment: Test C preemergence; format: in vivo, Abutilon theophrasti
From the text: as §3, §4

blackgrass = experiment: Test C preemergence; format: in vivo, Alopecurus myosuroides
Method in brief: as §1

wheat = experiment: Test C preemergence; format: in vivo, Triticum aestivum
Method in brief: as §1

barnyardgrass [3] = experiment: Test A preemergence; format: in vivo, Echinochloa crus-galli; conditions: preemergence
Method in brief: as §2

johnsongrass = experiment: Test C preemergence; format: in vivo, Sorghum halepense
Method in brief: as §1

barnyardgrass [4] = experiment: Test C preemergence; format: in vivo, Echinochloa crus-galli
From the text: as §3, §4

ryegrass, Italian = experiment: Test C preemergence; format: in vivo, Lolium multiflorum
From the text: as §3, §4

pigweed = experiment: Test C preemergence; format: in vivo, Amaranthus retroflexus
From the text: as §3, §4

corn [5] = experiment: Test C preemergence; format: in vivo, Zea mays
Method in brief: as §1

velvetleaf [6] = experiment: Test A postemergence; format: in vivo, Abutilon theophrasti
Method in brief: as §2

crabgrass, large = experiment: Test A postemergence; format: in vivo, Digitaria sanguinalis
Method in brief: as §2

oilseed rape = experiment: Test C preemergence; format: in vivo, Brassica napus
Method in brief: as §1

[7] = preemergence, 31 g ai/ha, visual rating, scale 0 to 100 (0 no effect, 100 complete control), 13 to 15 days
[8] = preemergence, 62 g ai/ha, 13 to 15 days, scale 0 to 100, 0 = no effect, 100 = complete control
[9] = preemergence, 125 g ai/ha, scale 0 to 100, 0 is no effect, 100 is complete control
[10] = Postemergence, 500 g ai/ha, visual rating after approx. 10 days, 0 to 100 scale (0 no effect, 100 complete control)
[11] = postemergence, 125 g ai/ha, about 10 days, visual rating on 0 to 100 scale (0 no effect, 100 complete control)
[12] = 125 g ai/ha, visual injury, 0 to 100 scale, approx. 10 days
[13] = 500 g ai/ha, visual injury after approx. 10 days, 0 to 100 scale (0 no effect, 100 complete control)
[14] = preemergence, 31 g ai/ha, scale 0 to 100 (0 no effect, 100 complete control), 13 to 15 days
[15] = Preemergence, 16 g ai/ha, scale 0 to 100

SMILES: CCc1cc(C(=O)NC2CC2)nn1Cc1ccnc(OC(F)F)c1 [Compound 98]
- Plant response rating (scale of 0 to 100), Galium (galium; Preemergence, 250 g ai/ha): 100
- Galium plant response rating (galium; [7]): 100
- Plant response rating, Galium (galium; [8]): 100
- Galium plant response rating (galium; [9]): 100
- Corn plant response rating (corn [1]; [10]): 90
- Corn plant response rating (corn [1]; [11]): 80
- Plant response rating (scale of 0 to 100), Soybean (soybean; Preemergence, 250 g ai/ha): 98
- Soybean plant response rating (soybean; [7]): 30
- Plant response rating, Soybean (soybean; [8]): 70
- Soybean plant response rating (soybean; [9]): 98
- Plant response rating (scale of 0 to 100), Velvetleaf (velvetleaf [2]; Preemergence, 250 g ai/ha): 100
- Velvetleaf plant response rating (velvetleaf [2]; [7]): 100
- Plant response rating, Velvetleaf (velvetleaf [2]; [8]): 100
- Velvetleaf plant response rating (velvetleaf [2]; [9]): 100
- Plant response rating (scale of 0 to 100), Blackgrass (blackgrass; Preemergence, 250 g ai/ha): 100
- Blackgrass plant response rating (blackgrass; [7]): 70
- Plant response rating, Blackgrass (blackgrass; [8]): 100
- Blackgrass plant response rating (blackgrass; [9]): 100
- Plant response rating (scale of 0 to 100), Wheat (wheat; Preemergence, 250 g ai/ha): 90
- Wheat plant response rating (wheat; [7]): 30
- Plant response rating, Wheat (wheat; [8]): 45
- Wheat plant response rating (wheat; [9]): 70
- Barnyardgrass plant response rating (barnyardgrass [3]; [12]): 90
- Barnyardgrass plant response rating (barnyardgrass [3]; [13]): 100
- Plant response rating (scale of 0 to 100), Johnsongrass (johnsongrass; Preemergence, 250 g ai/ha): 100
- Johnsongrass plant response rating (johnsongrass; [7]): 65
- Plant response rating, Johnsongrass (johnsongrass; [8]): 70
- Johnsongrass plant response rating (johnsongrass; [9]): 100
- Plant response rating (scale of 0 to 100), Barnyardgrass (barnyardgrass [4]; Preemergence, 250 g ai/ha): 100
- Barnyardgrass plant response rating (barnyardgrass [4]; [14]): 30
- Plant response rating, Barnyardgrass (barnyardgrass [4]; [8]): 100
- Barnyardgrass plant response rating (barnyardgrass [4]; [9]): 100
- Plant response rating (scale of 0 to 100), Ryegrass, Italian (ryegrass, Italian; Preemergence, 250 g ai/ha): 100
- Ryegrass, Italian plant response rating (ryegrass, Italian; [7]): 30
- Plant response rating, Ryegrass, Italian (ryegrass, Italian; [8]): 80
- Ryegrass, Italian plant response rating (ryegrass, Italian; [9]): 95
- Plant response rating (scale of 0 to 100), Pigweed (pigweed; Preemergence, 250 g ai/ha): 100
- Pigweed plant response rating (pigweed; [7]): 100
- Plant response rating, Pigweed (pigweed; [8]): 100
- Pigweed plant response rating (pigweed; [9]): 100
- Plant response rating (scale of 0 to 100), Corn (corn [5]; Preemergence, 250 g ai/ha): 95
- Corn plant response rating (corn [5]; [7]): 35
- Plant response rating, Corn (corn [5]; [8]): 45
- Corn plant response rating (corn [5]; [9]): 90
- Velvetleaf plant response rating (velvetleaf [6]; [10]): 100
- Velvetleaf plant response rating (velvetleaf [6]; [11]): 70
- Crabgrass, Large plant response rating (crabgrass, large; [10]): 90
- Crabgrass, Large plant response rating (crabgrass, large; [11]): 90
- Plant response rating (scale of 0 to 100), Oilseed Rape (oilseed rape; Preemergence, 250 g ai/ha): 100
- Oilseed Rape plant response rating (oilseed rape; [7]): 100
- Plant response rating, Oilseed Rape (oilseed rape; [8]): 100
- Oilseed Rape plant response rating (oilseed rape; [9]): 100

SMILES: CCc1cc(C(=O)NOC(C)C)nn1Cc1ccnc(C(F)(F)F)c1 [Compound 101]
- Plant response rating, Galium (galium; [15]): 80
- Galium plant response rating (galium; [7]): 80
- Plant response rating, Galium (galium; [8]): 80
- Galium plant response rating (galium; [9]): 80
- Corn plant response rating (corn [1]; [10]): 100
- Corn plant response rating (corn [1]; [11]): 90
- Plant response rating, Soybean (soybean; [15]): 0
- Soybean plant response rating (soybean; [7]): 5
- Plant response rating, Soybean (soybean; [8]): 40
- Soybean plant response rating (soybean; [9]): 50
- Plant response rating, Velvetleaf (velvetleaf [2]; [15]): 0
- Velvetleaf plant response rating (velvetleaf [2]; [7]): 35
- Plant response rating, Velvetleaf (velvetleaf [2]; [8]): 75
- Velvetleaf plant response rating (velvetleaf [2]; [9]): 100
- Plant response rating, Blackgrass (blackgrass; [15]): 30
- Blackgrass plant response rating (blackgrass; [7]): 75
- Plant response rating, Blackgrass (blackgrass; [8]): 90
- Blackgrass plant response rating (blackgrass; [9]): 95
- Plant response rating, Wheat (wheat; [15]): 0
- Wheat plant response rating (wheat; [7]): 5
- Plant response rating, Wheat (wheat; [8]): 85
- Wheat plant response rating (wheat; [9]): 85
- Barnyardgrass plant response rating (barnyardgrass [3]; [12]): 100
- Barnyardgrass plant response rating (barnyardgrass [3]; [13]): 100
- Plant response rating, Johnsongrass (johnsongrass; [15]): 0
- Johnsongrass plant response rating (johnsongrass; [7]): 20
- Plant response rating, Johnsongrass (johnsongrass; [8]): 40
- Johnsongrass plant response rating (johnsongrass; [9]): 75
- Plant response rating, Barnyardgrass (barnyardgrass [4]; [15]): 5
- Barnyardgrass plant response rating (barnyardgrass [4]; [14]): 75
- Plant response rating, Barnyardgrass (barnyardgrass [4]; [8]): 100
- Barnyardgrass plant response rating (barnyardgrass [4]; [9]): 100
- Plant response rating, Ryegrass, Italian (ryegrass, Italian; [15]): 0
- Ryegrass, Italian plant response rating (ryegrass, Italian; [7]): 30
- Plant response rating, Ryegrass, Italian (ryegrass, Italian; [8]): 60
- Ryegrass, Italian plant response rating (ryegrass, Italian; [9]): 100
- Plant response rating, Pigweed (pigweed; [15]): 20
- Pigweed plant response rating (pigweed; [7]): 80
- Plant response rating, Pigweed (pigweed; [8]): 90
- Pigweed plant response rating (pigweed; [9]): 100
- Plant response rating, Corn (corn [5]; [15]): 0
- Corn plant response rating (corn [5]; [7]): 0
- Plant response rating, Corn (corn [5]; [8]): 95
- Corn plant response rating (corn [5]; [9]): 100
- Velvetleaf plant response rating (velvetleaf [6]; [10]): 80
- Velvetleaf plant response rating (velvetleaf [6]; [11]): 50
- Crabgrass, Large plant response rating (crabgrass, large; [10]): 90
- Crabgrass, Large plant response rating (crabgrass, large; [11]): 80
- Plant response rating, Oilseed Rape (oilseed rape; [15]): 75
- Oilseed Rape plant response rating (oilseed rape; [7]): 90
- Plant response rating, Oilseed Rape (oilseed rape; [8]): 98
- Oilseed Rape plant response rating (oilseed rape; [9]): 100
